Experimental data as given in the kinase profiling compilation of Christmann-Franck et al. (2016).

Columns and labels:
Assay in all cases: radiometric filter-binding kinase assay
MELK (human) = MELK (human) (UniProt Q14680)
PRKCZ (human) = PRKCZ (human) (UniProt Q05513)
MAPK15 (human) = MAPK15 (human) (UniProt Q8TD08)
MAPK11 (human) = MAPK11 (human) (UniProt Q15759)
MAPKAPK5 (human) = MAPKAPK5 (human) (UniProt Q8IW41)
RPS6KA3 KD1 KD2 (human) = RPS6KA3 KD1 KD2 (human) (UniProt P51812)
SRC (human) = SRC (human) (UniProt P12931)
CAMKK2 (human) = CAMKK2 (human) (UniProt Q96RR4)
HIPK3 (human) = HIPK3 (human) (UniProt Q9H422)
CSNK1D (human) = CSNK1D (human) (UniProt P48730)
[1] = tested on: AKT2 (human), P31751 [S474D]
ROCK2 (rat) = details: accession and sequence are those of the human protein
CSK (human) = CSK (human) (UniProt P41240)
GSK3B (human) = GSK3B (human) (UniProt P49841)
LCK (mouse) = details: accession and sequence are those of the human protein
MAPK14 (human) = MAPK14 (human) (UniProt Q16539)
DYRK3 (human) = DYRK3 (human) (UniProt O43781)
Sequence of DYRK3 (human) (O43781 whole entry, looked up): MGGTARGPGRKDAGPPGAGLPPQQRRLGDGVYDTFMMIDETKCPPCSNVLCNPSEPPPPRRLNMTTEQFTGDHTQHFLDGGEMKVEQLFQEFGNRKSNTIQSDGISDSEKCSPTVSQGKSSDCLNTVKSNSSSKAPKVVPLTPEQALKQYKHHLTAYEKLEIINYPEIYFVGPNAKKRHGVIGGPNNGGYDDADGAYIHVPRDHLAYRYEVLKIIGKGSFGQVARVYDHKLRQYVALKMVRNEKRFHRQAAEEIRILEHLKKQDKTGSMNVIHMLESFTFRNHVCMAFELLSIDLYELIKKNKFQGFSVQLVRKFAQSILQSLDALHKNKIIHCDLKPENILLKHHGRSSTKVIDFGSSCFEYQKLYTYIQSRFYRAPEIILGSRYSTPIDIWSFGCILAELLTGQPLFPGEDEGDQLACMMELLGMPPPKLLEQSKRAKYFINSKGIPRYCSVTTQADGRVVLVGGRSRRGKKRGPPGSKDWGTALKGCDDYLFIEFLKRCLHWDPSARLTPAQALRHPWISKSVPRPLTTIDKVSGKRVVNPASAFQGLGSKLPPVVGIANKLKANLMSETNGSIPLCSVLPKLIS

Sequence of CSK (human) (P41240 whole entry, looked up): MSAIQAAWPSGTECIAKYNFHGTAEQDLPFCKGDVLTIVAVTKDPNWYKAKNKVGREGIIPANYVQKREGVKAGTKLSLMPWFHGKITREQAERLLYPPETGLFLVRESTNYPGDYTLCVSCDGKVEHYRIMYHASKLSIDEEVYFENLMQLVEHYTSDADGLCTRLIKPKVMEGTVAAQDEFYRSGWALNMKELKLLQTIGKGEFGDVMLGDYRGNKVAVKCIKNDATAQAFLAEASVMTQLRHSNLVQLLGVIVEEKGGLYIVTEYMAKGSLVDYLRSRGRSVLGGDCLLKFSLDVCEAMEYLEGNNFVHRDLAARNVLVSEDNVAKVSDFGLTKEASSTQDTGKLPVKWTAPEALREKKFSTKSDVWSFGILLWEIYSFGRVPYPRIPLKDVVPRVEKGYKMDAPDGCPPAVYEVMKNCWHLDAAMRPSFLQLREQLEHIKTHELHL
Sequence of MAPK11 (human) (Q15759 whole entry, looked up): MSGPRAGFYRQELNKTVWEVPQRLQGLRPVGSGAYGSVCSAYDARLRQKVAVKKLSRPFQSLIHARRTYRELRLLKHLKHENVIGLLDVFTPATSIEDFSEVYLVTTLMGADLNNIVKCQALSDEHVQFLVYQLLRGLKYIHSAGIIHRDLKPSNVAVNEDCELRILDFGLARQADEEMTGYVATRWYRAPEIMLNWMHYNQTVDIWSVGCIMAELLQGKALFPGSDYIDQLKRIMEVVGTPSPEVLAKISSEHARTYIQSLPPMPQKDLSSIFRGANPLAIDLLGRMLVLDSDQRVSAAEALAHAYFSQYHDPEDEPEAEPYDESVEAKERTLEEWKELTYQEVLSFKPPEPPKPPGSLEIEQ
Sequence of RPS6KA3 KD1 KD2 (human) (P51812 whole entry, looked up): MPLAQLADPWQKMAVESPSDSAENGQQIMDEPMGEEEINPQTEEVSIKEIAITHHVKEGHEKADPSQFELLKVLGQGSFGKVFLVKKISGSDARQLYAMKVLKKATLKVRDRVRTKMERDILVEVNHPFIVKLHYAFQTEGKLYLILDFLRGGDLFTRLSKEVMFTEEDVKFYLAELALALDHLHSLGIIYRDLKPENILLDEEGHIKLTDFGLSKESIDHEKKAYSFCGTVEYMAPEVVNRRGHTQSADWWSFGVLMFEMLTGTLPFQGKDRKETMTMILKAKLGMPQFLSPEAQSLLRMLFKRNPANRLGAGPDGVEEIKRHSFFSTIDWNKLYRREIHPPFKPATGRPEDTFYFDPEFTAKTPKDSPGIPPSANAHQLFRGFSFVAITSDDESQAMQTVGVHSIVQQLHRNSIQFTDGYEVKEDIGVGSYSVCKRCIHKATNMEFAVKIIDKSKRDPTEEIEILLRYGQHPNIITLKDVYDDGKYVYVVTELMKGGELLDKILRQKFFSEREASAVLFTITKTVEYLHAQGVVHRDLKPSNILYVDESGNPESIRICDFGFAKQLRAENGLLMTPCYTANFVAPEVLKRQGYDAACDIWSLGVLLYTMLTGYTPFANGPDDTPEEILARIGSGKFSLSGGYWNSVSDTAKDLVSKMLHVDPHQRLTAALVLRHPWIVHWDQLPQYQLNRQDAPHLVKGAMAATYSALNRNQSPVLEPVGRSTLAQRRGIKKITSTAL
Sequence of AKT2 (human), P31751 [S474D] (P31751 whole entry S474D, looked up): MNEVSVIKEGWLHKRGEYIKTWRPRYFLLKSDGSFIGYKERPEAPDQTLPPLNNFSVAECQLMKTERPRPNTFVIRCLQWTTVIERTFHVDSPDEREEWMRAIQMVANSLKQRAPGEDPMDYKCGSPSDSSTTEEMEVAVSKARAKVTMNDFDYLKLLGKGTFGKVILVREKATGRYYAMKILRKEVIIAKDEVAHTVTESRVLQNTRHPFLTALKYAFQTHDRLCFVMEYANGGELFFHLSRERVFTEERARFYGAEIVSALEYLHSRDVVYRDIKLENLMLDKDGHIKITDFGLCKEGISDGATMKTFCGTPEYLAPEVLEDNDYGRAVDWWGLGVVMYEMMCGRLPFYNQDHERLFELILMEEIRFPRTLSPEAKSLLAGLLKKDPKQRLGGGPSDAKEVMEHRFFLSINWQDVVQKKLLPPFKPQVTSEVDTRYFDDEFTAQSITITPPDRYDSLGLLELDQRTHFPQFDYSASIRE
Sequence of CSNK1D (human) (P48730 whole entry, looked up): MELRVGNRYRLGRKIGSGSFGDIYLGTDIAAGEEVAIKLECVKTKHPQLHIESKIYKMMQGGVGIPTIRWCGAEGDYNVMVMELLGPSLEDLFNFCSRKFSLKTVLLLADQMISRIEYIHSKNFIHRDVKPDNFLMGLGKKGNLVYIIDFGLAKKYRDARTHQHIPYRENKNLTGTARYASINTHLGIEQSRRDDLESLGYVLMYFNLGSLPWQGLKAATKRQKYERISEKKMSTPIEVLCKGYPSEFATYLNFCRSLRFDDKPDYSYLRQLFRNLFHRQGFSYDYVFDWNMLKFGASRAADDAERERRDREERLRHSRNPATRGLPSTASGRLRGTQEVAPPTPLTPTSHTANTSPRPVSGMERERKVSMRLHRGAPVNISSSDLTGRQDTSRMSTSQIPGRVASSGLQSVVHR
Sequence of GSK3B (human) (P49841 whole entry, looked up): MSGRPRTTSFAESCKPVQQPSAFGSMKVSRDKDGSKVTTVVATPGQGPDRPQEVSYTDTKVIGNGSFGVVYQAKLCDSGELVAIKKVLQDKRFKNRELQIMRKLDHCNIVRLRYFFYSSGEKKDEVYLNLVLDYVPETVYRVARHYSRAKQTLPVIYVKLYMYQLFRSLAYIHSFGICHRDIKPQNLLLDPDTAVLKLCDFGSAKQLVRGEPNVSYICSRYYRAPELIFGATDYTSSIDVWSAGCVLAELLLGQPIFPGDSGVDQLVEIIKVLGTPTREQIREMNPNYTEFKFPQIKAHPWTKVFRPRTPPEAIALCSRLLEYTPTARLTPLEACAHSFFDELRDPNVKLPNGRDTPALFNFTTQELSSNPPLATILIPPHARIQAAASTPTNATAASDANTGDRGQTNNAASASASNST
Sequence of HIPK3 (human) (Q9H422 whole entry, looked up): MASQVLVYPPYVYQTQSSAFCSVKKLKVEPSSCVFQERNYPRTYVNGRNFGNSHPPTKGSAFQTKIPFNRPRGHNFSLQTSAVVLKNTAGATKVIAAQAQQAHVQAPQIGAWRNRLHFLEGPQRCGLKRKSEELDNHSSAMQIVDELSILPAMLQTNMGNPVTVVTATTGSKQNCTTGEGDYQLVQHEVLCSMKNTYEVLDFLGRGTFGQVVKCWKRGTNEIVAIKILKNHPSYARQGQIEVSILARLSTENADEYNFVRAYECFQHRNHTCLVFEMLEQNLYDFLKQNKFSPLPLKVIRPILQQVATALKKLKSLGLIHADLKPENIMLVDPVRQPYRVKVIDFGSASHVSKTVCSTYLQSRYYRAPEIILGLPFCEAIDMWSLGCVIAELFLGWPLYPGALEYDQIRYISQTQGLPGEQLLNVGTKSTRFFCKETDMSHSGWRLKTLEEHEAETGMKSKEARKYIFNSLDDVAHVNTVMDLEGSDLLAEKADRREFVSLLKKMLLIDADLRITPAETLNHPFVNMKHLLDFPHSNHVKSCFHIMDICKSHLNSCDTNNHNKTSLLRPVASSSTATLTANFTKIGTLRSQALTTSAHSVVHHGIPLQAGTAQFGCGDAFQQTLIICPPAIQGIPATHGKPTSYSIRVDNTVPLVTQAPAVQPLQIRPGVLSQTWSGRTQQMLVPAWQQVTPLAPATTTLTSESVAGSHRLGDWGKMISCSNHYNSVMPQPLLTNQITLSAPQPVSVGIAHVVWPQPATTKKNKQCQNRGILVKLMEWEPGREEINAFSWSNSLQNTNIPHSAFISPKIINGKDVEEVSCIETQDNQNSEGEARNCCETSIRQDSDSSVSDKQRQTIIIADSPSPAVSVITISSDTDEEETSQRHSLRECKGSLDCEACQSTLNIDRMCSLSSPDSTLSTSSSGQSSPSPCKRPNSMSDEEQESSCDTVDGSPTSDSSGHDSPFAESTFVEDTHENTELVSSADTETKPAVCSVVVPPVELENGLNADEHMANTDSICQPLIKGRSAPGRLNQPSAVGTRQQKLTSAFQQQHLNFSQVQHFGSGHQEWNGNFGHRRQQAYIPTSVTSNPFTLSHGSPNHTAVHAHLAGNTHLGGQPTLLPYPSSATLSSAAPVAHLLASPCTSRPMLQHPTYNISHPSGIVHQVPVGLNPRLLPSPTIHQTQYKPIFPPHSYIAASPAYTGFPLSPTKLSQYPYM

SMILES: Cn1nc(Nc2ccc(F)cc2)c2c(N)ncnc21
- residual activity (MELK (human); compound 1.0 µM): 109%
- residual activity (MELK (human); compound 10.0 µM): 91%
- residual activity (PRKCZ (human); compound 1.0 µM): 97%
- residual activity (PRKCZ (human); compound 10.0 µM): 102%
- residual activity (MAPK15 (human); compound 1.0 µM): 76%
- residual activity (MAPK15 (human); compound 10.0 µM): 70%
- residual activity (MAPK11 (human); compound 1.0 µM): 132%
- residual activity (MAPK11 (human); compound 10.0 µM): 127%
- residual activity (MAPKAPK5 (human); compound 1.0 µM): 107%
- residual activity (MAPKAPK5 (human); compound 10.0 µM): 109%
- residual activity (RPS6KA3 KD1 KD2 (human); compound 1.0 µM): 110%
- residual activity (RPS6KA3 KD1 KD2 (human); compound 10.0 µM): 107%
- residual activity (SRC (human); compound 1.0 µM): 96%
- residual activity (SRC (human); compound 10.0 µM): 63%
- residual activity (CAMKK2 (human); compound 1.0 µM): 112%
- residual activity (CAMKK2 (human); compound 10.0 µM): 120%
- residual activity (HIPK3 (human); compound 1.0 µM): 143%
- residual activity (HIPK3 (human); compound 10.0 µM): 136%
- residual activity (CSNK1D (human); compound 1.0 µM): 97%
- residual activity (CSNK1D (human); compound 10.0 µM): 62%
- residual activity ([1]; compound 1.0 µM): 103%
- residual activity ([1]; compound 10.0 µM): 103%
- residual activity (ROCK2 (rat); compound 1.0 µM): 117%
- residual activity (ROCK2 (rat); compound 10.0 µM): 113%
- residual activity (CSK (human); compound 1.0 µM): 88%
- residual activity (CSK (human); compound 10.0 µM): 76%
- residual activity (GSK3B (human); compound 1.0 µM): 119%
- residual activity (GSK3B (human); compound 10.0 µM): 125%
- residual activity (LCK (mouse); compound 1.0 µM): 112%
- residual activity (LCK (mouse); compound 10.0 µM): 81%
- residual activity (MAPK14 (human); compound 1.0 µM): 93%
- residual activity (MAPK14 (human); compound 10.0 µM): 80%
- residual activity (DYRK3 (human); compound 1.0 µM): 119%
- residual activity (DYRK3 (human); compound 10.0 µM): 101%

SMILES: COc1ccc2c(c1)c1c3c(c4c5ccccc5n(C)c4c1n2CC(O)CN(C)C)C(=O)NC3=O (centres undefined)
- residual activity (MELK (human); compound 0.1 µM): 72%
- residual activity (MELK (human); compound 1.0 µM): 20%
- residual activity (MELK (human); compound 10.0 µM): 8%
- residual activity (PRKCZ (human); compound 0.1 µM): 118%
- residual activity (PRKCZ (human); compound 1.0 µM): 74%
- residual activity (PRKCZ (human); compound 10.0 µM): 62%
- residual activity (MAPK15 (human); compound 0.1 µM): 78%
- residual activity (MAPK15 (human); compound 1.0 µM): 53%
- residual activity (MAPK15 (human); compound 10.0 µM): 54%
- residual activity (MAPK11 (human); compound 0.1 µM): 119%
- residual activity (MAPK11 (human); compound 1.0 µM): 102%
- residual activity (MAPK11 (human); compound 10.0 µM): 95%
- residual activity (MAPKAPK5 (human); compound 0.1 µM): 104%
- residual activity (MAPKAPK5 (human); compound 1.0 µM): 103%
- residual activity (MAPKAPK5 (human); compound 10.0 µM): 108%
- residual activity (RPS6KA3 KD1 KD2 (human); compound 0.1 µM): 3%
- residual activity (RPS6KA3 KD1 KD2 (human); compound 1.0 µM): 0%
- residual activity (RPS6KA3 KD1 KD2 (human); compound 10.0 µM): 0%
- residual activity (SRC (human); compound 0.1 µM): 104%
- residual activity (SRC (human); compound 1.0 µM): 95%
- residual activity (SRC (human); compound 10.0 µM): 63%
- residual activity (CAMKK2 (human); compound 0.1 µM): 113%
- residual activity (CAMKK2 (human); compound 1.0 µM): 68%
- residual activity (CAMKK2 (human); compound 10.0 µM): 37%
- residual activity (HIPK3 (human); compound 0.1 µM): 108%
- residual activity (HIPK3 (human); compound 1.0 µM): 106%
- residual activity (HIPK3 (human); compound 10.0 µM): 59%
- residual activity (CSNK1D (human); compound 0.1 µM): 103%
- residual activity (CSNK1D (human); compound 1.0 µM): 83%
- residual activity (CSNK1D (human); compound 10.0 µM): 68%
- residual activity ([1]; compound 0.1 µM): 80%
- residual activity ([1]; compound 1.0 µM): 44%
- residual activity ([1]; compound 10.0 µM): 13%
- residual activity (ROCK2 (rat); compound 0.1 µM): 118%
- residual activity (ROCK2 (rat); compound 1.0 µM): 115%
- residual activity (ROCK2 (rat); compound 10.0 µM): 112%
- residual activity (CSK (human); compound 0.1 µM): 84%
- residual activity (CSK (human); compound 1.0 µM): 78%
- residual activity (CSK (human); compound 10.0 µM): 58%
- residual activity (GSK3B (human); compound 0.1 µM): 67%
- residual activity (GSK3B (human); compound 1.0 µM): 20%
- residual activity (GSK3B (human); compound 10.0 µM): 5%
- residual activity (LCK (mouse); compound 0.1 µM): 103%
- residual activity (LCK (mouse); compound 1.0 µM): 75%
- residual activity (LCK (mouse); compound 10.0 µM): 41%
- residual activity (MAPK14 (human); compound 0.1 µM): 107%
- residual activity (MAPK14 (human); compound 1.0 µM): 106%
- residual activity (MAPK14 (human); compound 10.0 µM): 86%
- residual activity (DYRK3 (human); compound 0.1 µM): 92%
- residual activity (DYRK3 (human); compound 1.0 µM): 57%
- residual activity (DYRK3 (human); compound 10.0 µM): 24%

SMILES: Cc1cccc(Nc2nn(C)c3ncnc(N)c23)c1
- residual activity (MELK (human); compound 1.0 µM): 108%
- residual activity (MELK (human); compound 10.0 µM): 118%
- residual activity (PRKCZ (human); compound 1.0 µM): 89%
- residual activity (PRKCZ (human); compound 10.0 µM): 112%
- residual activity (MAPK15 (human); compound 1.0 µM): 76%
- residual activity (MAPK15 (human); compound 10.0 µM): 93%
- residual activity (MAPK11 (human); compound 1.0 µM): 131%
- residual activity (MAPK11 (human); compound 10.0 µM): 111%
- residual activity (MAPKAPK5 (human); compound 1.0 µM): 101%
- residual activity (MAPKAPK5 (human); compound 10.0 µM): 109%
- residual activity (RPS6KA3 KD1 KD2 (human); compound 1.0 µM): 88%
- residual activity (RPS6KA3 KD1 KD2 (human); compound 10.0 µM): 99%
- residual activity (SRC (human); compound 1.0 µM): 97%
- residual activity (SRC (human); compound 10.0 µM): 100%
- residual activity (CAMKK2 (human); compound 1.0 µM): 125%
- residual activity (CAMKK2 (human); compound 10.0 µM): 117%
- residual activity (HIPK3 (human); compound 1.0 µM): 136%
- residual activity (HIPK3 (human); compound 10.0 µM): 138%
- residual activity (CSNK1D (human); compound 1.0 µM): 77%
- residual activity (CSNK1D (human); compound 10.0 µM): 87%
- residual activity ([1]; compound 1.0 µM): 95%
- residual activity ([1]; compound 10.0 µM): 100%
- residual activity (ROCK2 (rat); compound 1.0 µM): 117%
- residual activity (ROCK2 (rat); compound 10.0 µM): 106%
- residual activity (CSK (human); compound 1.0 µM): 97%
- residual activity (CSK (human); compound 10.0 µM): 85%
- residual activity (GSK3B (human); compound 1.0 µM): 114%
- residual activity (GSK3B (human); compound 10.0 µM): 133%
- residual activity (LCK (mouse); compound 1.0 µM): 125%
- residual activity (LCK (mouse); compound 10.0 µM): 131%
- residual activity (MAPK14 (human); compound 1.0 µM): 118%
- residual activity (MAPK14 (human); compound 10.0 µM): 122%
- residual activity (DYRK3 (human); compound 1.0 µM): 136%
- residual activity (DYRK3 (human); compound 10.0 µM): 137%
